# According to the NIST ThermoML archive (doi:10.1016/j.jct.2017.12.015):
# ± gives the expanded uncertainty stated by the source.
# How the values were obtained:
# [1] = refractive index (Na D-line) (dimensionless); settings: 298 K; 101.33 kPa; Liquid; Standard Abbe refractometry
# [2] = Liquid, Ebulliometric method (Recirculating still)
smiles,measurement,setting,value
O=Cc1ccco1 [2-furaldehyde],refractive index,[1],1.52364 ± 0.001
CC1CCCO1 (configuration not stated) [2-methyltetrahydrofuran],vapor or sublimation pressure,[2]; 323.22 K,36.4 ± 0.3 kPa
same,vapor or sublimation pressure,[2]; 327.67 K,43 ± 0.3 kPa
same,vapor or sublimation pressure,[2]; 337.97 K,62.1 ± 0.3 kPa
same,vapor or sublimation pressure,[2]; 341.54 K,70.1 ± 0.3 kPa
same,vapor or sublimation pressure,[2]; 347.21 K,84.4 ± 0.3 kPa
same,vapor or sublimation pressure,[2]; 350.53 K,93.8 ± 0.4 kPa
same,vapor or sublimation pressure,[2]; 352.84 K,100.8 ± 0.4 kPa
same,refractive index,[1],1.40299 ± 0.001
CC(=O)O [acetic acid],refractive index,[1],1.37203 ± 0.001
CC(C)=O [acetone],refractive index,[1],1.3555 ± 0.001
COC1CCCC1 [methoxycyclopentane],vapor or sublimation pressure,[2]; 340.92 K,29.4 ± 0.2 kPa
same,vapor or sublimation pressure,[2]; 345.38 K,34.6 ± 0.2 kPa
same,vapor or sublimation pressure,[2]; 350.4 K,41.4 ± 0.3 kPa
same,vapor or sublimation pressure,[2]; 356.3 K,50.7 ± 0.3 kPa
same,vapor or sublimation pressure,[2]; 363.57 K,64.4 ± 0.3 kPa
same,vapor or sublimation pressure,[2]; 366.69 K,71.1 ± 0.3 kPa
same,vapor or sublimation pressure,[2]; 369.78 K,78.3 ± 0.3 kPa
same,vapor or sublimation pressure,[2]; 374.39 K,90 ± 0.3 kPa
same,vapor or sublimation pressure,[2]; 377.89 K,99.8 ± 0.3 kPa
same,refractive index,[1],1.41833 ± 0.001
O [water],refractive index,[1],1.3325 ± 0.001
